For data set [1] the following is noted: according to the '340 patent; cited from earlier work.
A short description of data set [2]: Stability study of Form XIV, polymorph content by X-Ray Powder Diffraction analysis. The data set is classed as physicochemical. An excerpt:
[table] Powder X-ray diffraction data were obtained using methods known in the art on a […] powder X-ray diffractometer model X'TRA equipped with a solid state detector. Copper radiation of 1.5418 Å was used. A round aluminum sample holder with zero background was used.

A short description of data set [3]: Stability studies, appearance after storage. The data set is classed as physicochemical. Conditions: storage at 40 EC for three months.

Turning to `CC(C)n1c(/C=C/[C@@H](O)C[C@@H](O)CC(=O)O)c(-c2ccc(F)cc2)c2ccccc21` (racemic) [Form B, fluvastatin sodium], the Hygroscopicity result in data set [1] was “low hygroscopicity”.

Turning to `CC(C)n1c(/C=C/[C@@H](O)C[C@@H](O)CC(=O)O)c(-c2ccc(F)cc2)c2ccccc21` (relative stereo) [Form XIV, [R*,S*-(E)]-(±)-7-[3-(4-fluorophenyl)-1-(1-methylethyl)-1H-indol-2-yl]-3,5-dihydroxy-6-heptenoic acid monosodium], the “Polymorph content by X-Ray Powder Diffraction analysis” value in data set [2] (25° C., 60% RH, 1 M) is listed as “XIV”; in data set [2] (25° C., 60% RH, 2 M), “XIV”; in data set [2] (25° C., 60% RH, 3 M) it was “XIV”; in data set [2] (40° C., 75% RH, 1 M) it was “XIV”; in data set [2] (40° C., 75% RH, 2 M) it was “XIV”; in data set [2] (40° C., 75% RH, 3 M), “XIV”. Moreover, the “Polymorph content by X-Ray Powder Diffraction analysis” value in data set [2] (55° C., 1 M) is “XIV”; in data set [2] (55° C., 2 M), “XIV”; in data set [2] (55° C., 3 M), “XIV”; in data set [2] (t = 0), “XIV”. Besides, the “Transformation into Form B upon storage” value in data set [2] (storage at 25, 40 and 55° C., for at least 3 months) was “no more than 5%”. Moreover, the “Change of appearance (white to pale yellow powder) after storage” value in data set [3] is given as “does not change”.

(Values after US20080200532A1 (Teva Pharmaceuticals USA, Inc. for Barbados, priority 2003, published 2008).)
